# Data reported in PMC12135066, “Design and Preclinical Evaluation of Novel uPAR-Targeting Radiopeptides Modified with an Albumin-Binding Entity” (Molecular Pharmaceutics, 2025).
# Key:
# [1] = Radiolytic stability of the radiopeptides in saline with L-ascorbic acid; settings: 50 MBq/nmol in saline, 150 MBq/300 µL, L-ascorbic acid (3 mg, 20 µL) and NaOAc (0.5 M, 30 µL), HPLC, product peak relative to t=0 (100%), average ± SD, n=3
# Description: The radiolytic stability of the radiopeptides (50 MBq/nmol) in saline (150 MBq/300 μL) was assessed in the absence and presence of L-ascorbic acid (3 mg added in a volume of 20 μL). After an incubation period of 1, 4, and 24 h, aliquots of the solutions were analyzed using HPLC. The integrated peak area representing the intact radiopeptide was expressed as the percentage of the sum of all peaks of the chromatogram. The final amount of intact radiopeptide was expressed as the percentage of the product peak obtained at t = 0, which was set as 100% (Supporting Information).
# The radiolytic stability of [177Lu]Lu-DOTA-AE105 and the new 177Lu-labeled uPAR-targeting
# radiopeptides (50 MBq/nmol) was assessed in vitro in the formulated solution . The radiopeptide s were
# diluted in saline to obtain an activity concentration of 150 MBq in 300 µL in the presence of L-ascorbic
# acid (3 mg, 20 µL) and NaOAc (0.5 M, 30 µL) to compensate for the acidic pH. Aliquots of the dilutions
# were analyzed using HPLC after incubation periods of 1 h, 4 h and 24 h . The integrated peak area
# measured for the intact radioligand peak was expressed as the percentage of the sum of the integrated
# peak areas of each peak present in the chromatogram. The final amount of intact radiopeptide at t = 1 h,
# 4 h and 24 h was expressed by correcting the obtained percentage of the product peak to this peak
# obtained at t = 0, which was set as 100%.
# [2] = Biodistribution studies in HEK-uPAR xenograft-bearing nude mice; settings: female, mouse, 0.5 nmol, total radioactivity, 5 MBq, 0.5 nmol, decay-corrected, average ± SD, n=3 animals; for tissue uptake at 4 h: 4 h p.i.; for tissue uptake at 24 h: 24 h p.i.
# Description: (§1) All applicable international, national, and/or institutional guidelines for the care and use of laboratory animals were followed, and the herein reported experiments were carried out according to the guidelines of the Swiss Regulations for Animal Welfare. The preclinical studies were ethically approved by the Cantonal Committee of Animal Experimentation and permitted by the responsible cantonal authorities (License No. 75721). Five-week-old female CD1/nude (Crl:CD1-Foxn ^ nu ) and female immunocompetent FVB (FVB/NCrl) mice were obtained from Charles River Laboratories (Sulzfeld, Germany). All mice were acclimatized for at least 7 days, receiving standard rodent chow ad libitum before being included in the reported studies. The CD1/nude mice were subcutaneously inoculated with HEK-uPAR cells (7 × 10^6 cells in 100 μL PBS) on the right shoulder. […] Typically, it took 3–11 weeks to reach xenograft volumes of 40–600 mm^3 at the time of testing the tissue distribution of the radiopeptides. The immunocompetent FVB mice were used for testing the in vivo stability of the radiopeptides.
# (§2) The mice were injected with the radiopeptides (5 MBq, 0.5 nmol, 100 μL) in saline containing 0.05% BSA and sacrificed at 4 and 24 h after injection of the radiopeptides. Selected tissues and organs were collected, weighed, and measured with the γ-counter (1480 Wizard, PerkinElmer). […] A p-value of <0.05 was considered a statistically significant difference (GraphPad Prism software, version 8.3.1).
# (§3) Decay-corrected data is shown as average ± SD of n = 3 animals of % injected activity per gram (IA/g) tissue.
# [3] = system: HEK-uPAR xenograft-bearing nude mice; test: as above; settings: average ± SD, n=3 animals
# Description: as §1, §2, §3
# [4] = system: human serum albumin (HSA); test: Albumin-binding properties in human blood plasma (ultrafiltration assay); settings: ultrafiltration (Amicon, 10 kDa), human blood plasma dilutions in PBS pH 7.4, [HSA]-to-[radiopeptide] 0.01–20000, 0.006 nmol, 37 °C 30 min, γ-counter; inverse ratio of B50, [177Lu]Lu-uPAR-01 set as 1.00; average curve of 3 experiments
# Description: (§4) The relative albumin-binding affinities of the radiopeptides in mouse and human blood plasma were determined using an ultrafiltration assay with Amicon centrifugal filters (cutoff of 10 kDa; Merck Millipore), as previously reported (Supporting Information). A fixed amount of the respective radiopeptide (15 μL, ∼300 kBq, 0.006 nmol) was added to a defined volume (150 μL) of mouse and human blood plasma dilutions to obtain [mouse serum albumin (MSA)]-to-[radiopeptide] and [human serum albumin (HSA)]-to-[radiopeptide] molar concentration ratios of 0.01–12,500 and 0.01–20,000, respectively. The data were analyzed using a semilogarithmic Hill plot with the maximum binding set as 100% (GraphPad Prism software, version 8.3.1).
# (§5) Determination of the Albumin-Binding Properties
# (§6) Purpose: The radiopeptides were investigated with regard to their albumin-binding capabilities in vitro
# (§7) as a measure to predict blood retention in vivo.
# (§8) Methods: The relative albumin-binding affinity of the radiopeptides in mouse blood plasma (Rockland
# (§9) Immunochemicals, Inc., U.S.A.) and human blood plasma (Stiftung Blutspende SRK Aargau-
# (§10) Solothurn, Switzerland) were determined using an ultrafiltration method. The amount of mouse serum
# (§11) albumin (MSA) and human serum albumin (HSA) in mouse and human blood plasma was defined as
# (§12) 550 μM and 800 μM, respectively, based on measurements using a dry chemistry analyzer (DRI-CHEM
# (§13) 4000i, FUJIFILM, Japan). A fixed amount of radiopeptide (50 MBq/nmol, ~300 kBq, 15 μL, 0.006
# (§14) nmol) was added to a defined volume (150 μL) of mouse and human blood plasma and various dilutions
# (§15) thereof in PBS pH 7.4, resulting in defined [MSA]-to-[radiopeptide] or [HSA]-to-[radiopeptide] molar
# (§16) concentration ratios ranging from 0.01 ‒12500 and 0.01‒20000, respectively, followed by incubation of
# (§17) the samples at 37 °C for 30 min. Ice-cold PBS (150 µL, pH 7.4) was added before loading the blood
# (§18) plasma samples on Amicon centrifugal filters (cut -off of 10 kDa; Merck Millipore) followed by
# (§19) centrifugation (14000 rcf, 30 min, 4 °C) to allow the separation of the plasma protein -bound from the
# (§20) plasma-unbound (free) fractions of each sample. The inserts of the filter devices were inverted and centrifuged at 200 rcf for 3 min to recover the protein -bound radiopeptide. The activity in the filtrate
# (§21) and filter unit was measured in a γ-counter (1480 Wizard, PerkinElmer) and the counts were combined
# (§22) assuming that the fraction retained in the filter membrane was not bound to proteins. The protein -bound
# (§23) fraction was expressed as percentage of the whole activity (i.e. plasma protein -bound activity, activity
# (§24) measured in the filtrate and activity measured in the filter (set as 100%) ). The data were analyzed using
# (§25) a semi-logarithmic plot assuming a maximum binding of 100%. The Hill equation was fitted to the data
# (§26) points and the half -maximum binding ( B50) based on the average curve obtained from three independent
# (§27) experiments (GraphPad Prism software, version 8.3 .1). The relative albumin-binding affinit ies of the
# (§28) reference compound, whose relative binding affinity was set as 1.0. The results were presented as the
# (§29) B50 value obtained from the average curve from 3 independent experiments.
# [5] = Stability of the radiopeptides in human blood plasma
# [6] = Stability of the radiopeptides in mouse blood plasma
# Description: The radiopeptides (50 MBq/nmol) stabilized with L-ascorbic acid were diluted in mouse and human blood plasma and incubated at 37 °C. Aliquots were taken after 1, 4, and 24 h and analyzed using reversed-phase thin-layer chromatography (TLC) (Supporting Information).
# aProduct peak expressed as percentage of the sum of integrated peak areas of the entire chromatogram relative to
# the value obtained immediately after labeling (set as 100%), average ± standard deviation (SD) (n=3).
# Stability of the Radiopeptides in Mouse and Human Blood Plasma
# Purpose: The stability of the radiopeptides was assessed in mouse and human blood plasma as an
# indication for their in vivo stability.
# Methods: The radiopeptides (50 MBq/nmol) stabilized with L-ascorbic acid were diluted in mouse
# blood plasma (Lot: 32321, Rockland Immunochemicals Inc., U.S.A.) or in human blood plasma
# (Stiftung Blutspende SRK Aargau -Solothurn, Switzerland) at a concentration of 10 MBq/200 µL and
# incubated at 37 °C over a 24 h time period. Control samples were prepared by diluting the radiopeptides
# in saline at the same activity concentration. Aliquots of each dilution were taken after 1 h, 4 h, and 24 h
# (2 µL, ~100 kBq) and investigated employing thin layer chromatography (TLC) methods on reversed-
# phase TLC plates (MERCK Analytical Chromatography, TLC Silica gel 60 RP -18 F254s) as stationary
# phase and a 3/7 (v/v) mixture of acetonitrile /citrate buffer (0.1 M, pH 5.5) as mobile phase. A dilution
# of [177Lu]LuCl3/HCl 0.04 M (10 MBq/200 µL) was added on each TLC plate. The developed and dried
# TLC plates were exposed to a phosphor screen (Super resolution screen PSR10450013, PerkinElmer)
# for 1 min. The screen was read with a Cyclone Plus phosphor imager (PerkinElmer) and the peak
# quantification was performed using OptiQuant Software (version 5.0).
# [7] = system: mouse serum albumin (MSA); test: Albumin-binding properties in mouse blood plasma (ultrafiltration assay); settings: ultrafiltration (Amicon, 10 kDa), mouse blood plasma dilutions in PBS pH 7.4, [MSA]-to-[radiopeptide] 0.01–12500, 0.006 nmol, 37 °C 30 min, γ-counter; inverse ratio of B50, [177Lu]Lu-uPAR-01 set as 1.00; average curve of 3 experiments
# Description: as §4, §5, §6, §7, §8, §9, §10, §11, §12, §13, §14, §15, §16, §17, §18, §19, §20, §21, §22, §23, §24, §25, §26, §27, §28, §29
# [8] = n-Octanol/PBS distribution coefficients (logD values); settings: n-octanol/PBS pH 7.4, pH 7.4
# Description: The radiopeptides diluted in phosphate-buffered saline (PBS) pH 7.4 (25 μL, ∼0.5 MBq, 0.01 nmol) were added to a mixture of PBS pH 7.4 (1475 μL) and n-octanol (1500 μL). The vials were vortexed vigorously for 1 min, followed by centrifugation (560 rcf, 6 min) for phase separation. Aliquots were taken from each phase and measured in a γ-counter (1480 Wizard, PerkinElmer). The distribution coefficients were calculated as the logarithmic value of the ratio of counts per minute (cpm) measured in the n-octanol phase relative to the cpm measured in the PBS phase.
# Methods: The logD value of all radiopeptides was determined in a mixture of n-octanol and phosphate
# buffered saline (PBS) pH 7.4 using phase separation followed by liquid-liquid extraction.
# polystyrene radioimmunoassay (RIA) tubes were prepared for each radiopeptide with 1.5 mL n-octanol
# and 1.475 mL PBS pH 7.4. The RIA tubes were rigorously vortexed and subsequently let to stand so
# that the phase separation could take place. The radiopeptides (50 MBq/nmol) were diluted with PBS
# pH 7.4 to obtain an activity concentration of 10 MBq/0.5 mL. A volume of 25 μL of these solutions
# was added to each RIA tube (25 µL, ~0.5 MBq, 0.01 nmol) followed by vortexing for 1 min.
# separation was achieved by centrifugation at 560 rcf for 6 min. The activity in the n-octanol and PBS
# phase, respectively, was measured in a γ-counter (Wallac Wizard 1480, PerkinElmer).
# coefficients were calculated as the logarithm of the ratio of counts per minute (cpm) measured in the n-
# octanol phase relative to the cpm measured in the PBS pH 7.4 phase.
# as described above three independent times for each radiopeptide.
# [9] = CD1/nude (Crl:CD1-Foxn nu), HEK-uPAR xenograft, HEK-uPAR xgft
# [10] = CD1/nude (Crl:CD1-Foxn nu), liver, Liver
# [11] = CD1/nude, blood, 5 MBq (0.5 nmol)
# [12] = CD1/nude, bone, 5 MBq (0.5 nmol)
# [13] = CD1/nude, brain, 5 MBq (0.5 nmol)
# [14] = CD1/nude, heart, 5 MBq (0.5 nmol)
# [15] = CD1/nude, intestines, 5 MBq (0.5 nmol)
# [16] = CD1/nude, kidneys, 5 MBq (0.5 nmol)
# [17] = CD1/nude, liver, 5 MBq (0.5 nmol)
# [18] = CD1/nude, lung, 5 MBq (0.5 nmol)
# [19] = CD1/nude, muscle, 5 MBq (0.5 nmol)
# [20] = CD1/nude, pancreas, 5 MBq (0.5 nmol)
# [21] = CD1/nude, salivary glands, 5 MBq (0.5 nmol)
# [22] = CD1/nude, spleen, 5 MBq (0.5 nmol)
# [23] = CD1/nude, stomach, 5 MBq (0.5 nmol)
smiles,measurement,setting,value
"CC(C)C[C@H](NC(=O)[C@H](Cc1ccc(O)cc1)NC(=O)[C@@H](CCCNC(=N)N)NC(=O)[C@@H](CO)NC(=O)[C@H](Cc1ccccc1)NC(=O)[C@H](CC1CCCCC1)NC(=O)[C@H](CC(=O)O)NC(=O)CN1CCN(CC(=O)O)CCN(CC(=O)O)CCN(CC(=O)O)CC1)C(=O)N[C@@H](Cc1c[nH]c2ccccc12)C(=O)N[C@@H](CO)C(N)=O [[^177Lu]Lu-DOTA-AE105, metal not drawn, reference compound]","radiolytic stability, % intact radiopeptide",[1]; 1 h,98 ± 2%
same,"radiolytic stability, % intact radiopeptide",[1]; 4 h,98 ± 1%
same,tissue uptake at 4 h,[2]; [9],< 1 %ID/g
same,tissue uptake at 24 h,[2]; [9],0.4 ± 0.19 %ID/g
same,tissue uptake at 4 h,[2]; [10],< 0.2 %ID/g
same,tissue uptake at 24 h,[2]; [10],< 0.2 %ID/g
same,tissue uptake at 4 h,"[2]; CD1/nude (Crl:CD1-Foxn nu), whole blood, Blood",< 0.1 %ID/g
same,tissue uptake at 4 h,[2]; [11],0.08 ± 0.01 %ID/g
same,tissue uptake at 24 h,[2]; [11],< 0.05 %ID/g
same,tissue uptake at 4 h,[2]; [12],0.38 ± 0.03 %ID/g
same,tissue uptake at 24 h,[2]; [12],0.84 ± 0.1 %ID/g
same,tissue uptake at 4 h,[2]; [13],< 0.05 %ID/g
same,tissue uptake at 24 h,[2]; [13],< 0.05 %ID/g
same,tissue uptake at 4 h,[2]; [14],0.06 ± 0.01 %ID/g
same,tissue uptake at 24 h,[2]; [14],< 0.05 %ID/g
same,tissue uptake at 4 h,[2]; [15],0.31 ± 0.03 %ID/g
same,tissue uptake at 24 h,[2]; [15],0.18 ± 0.02 %ID/g
same,tissue uptake at 4 h,[2]; [16],1.5 ± 0.1 %ID/g
same,tissue uptake at 24 h,[2]; [16],1.3 ± 0.1 %ID/g
same,tissue uptake at 4 h,[2]; [17],0.1 ± 0.01 %ID/g
same,tissue uptake at 24 h,[2]; [17],0.17 ± 0.01 %ID/g
same,tissue uptake at 4 h,[2]; [18],0.3 ± 0.02 %ID/g
same,tissue uptake at 24 h,[2]; [18],0.21 ± 0.01 %ID/g
same,tissue uptake at 4 h,[2]; [19],< 0.05 %ID/g
same,tissue uptake at 24 h,[2]; [19],< 0.05 %ID/g
same,tissue uptake at 4 h,[2]; [20],0.06 ± 0.01 %ID/g
same,tissue uptake at 24 h,[2]; [20],0.06 ± 0.01 %ID/g
same,tissue uptake at 4 h,[2]; [21],0.09 ± 0.01 %ID/g
same,tissue uptake at 24 h,[2]; [21],0.09 ± 0.01 %ID/g
same,tissue uptake at 4 h,[2]; [22],0.18 ± 0.02 %ID/g
same,tissue uptake at 24 h,[2]; [22],0.23 ± 0.04 %ID/g
same,tissue uptake at 4 h,[2]; [23],0.15 ± 0.03 %ID/g
same,tissue uptake at 24 h,[2]; [23],0.17 ± 0.03 %ID/g
same,HEK-uPAR xgft,"[3]; 4 h p.i., 5 MBq, 0.5 nmol, decay-corrected",0.87 ± 0.05 % IA/g
same,Xenograft-to-blood ratio,[3]; 4 h p.i.,11 ± 1
same,Xenograft-to-kidney ratio,[3]; 4 h p.i.,0.58 ± 0.03
same,Xenograft-to-liver ratio,[3]; 4 h p.i.,8.6 ± 0.4
same,Xenograft-to-blood ratio,[3]; 24 h p.i.,32 ± 13
same,Xenograft-to-kidney ratio,[3]; 24 h p.i.,0.33 ± 0.14
same,Xenograft-to-liver ratio,[3]; 24 h p.i.,2.4 ± 0.9
same,"Relative albumin-binding affinity, human blood plasma",[4],0.01
same,Intact radiopeptide in human blood plasma [%],"[5]; 24 h, human blood plasma, 10 MBq/200 µL, 50 MBq/nmol, stabilized with L-ascorbic acid, 37 °C, reversed-phase TLC, phosphor imager, relative to t=0 (100%), average ± SD, n=3",~4.5%
same,"remaining at 1 h, 10 MBq/200 µL","[5]; human, blood plasma",71 ± 3%
same,"remaining at 24 h, 10 MBq/200 µL","[5]; human, blood plasma",4.5 ± 1.2%
same,"remaining at 4 h, 10 MBq/200 µL","[5]; human, human blood plasma",~13%
same,Intact radiopeptide in mouse blood plasma [%],"[6]; 24 h, mouse blood plasma, 10 MBq/200 µL, 50 MBq/nmol, stabilized with L-ascorbic acid, 37 °C, reversed-phase TLC, phosphor imager, relative to t=0 (100%), average ± SD, n=3",~4.5%
same,"remaining at 1 h, 10 MBq/200 µL","[6]; mouse, blood plasma",61 ± 6%
same,"remaining at 24 h, 10 MBq/200 µL","[6]; mouse, blood plasma",4.6 ± 2.2%
same,"remaining at 4 h, 10 MBq/200 µL","[6]; mouse, mouse blood plasma",~13%
same,"Relative albumin-binding affinity, mouse blood plasma",[7],0.02
same,logD,[8],-1.38 ± 0.18
